From patent US20120219561A1, “Prophylaxis Against Cancer Metastasis” (Ingeneron, Inc., priority 2009, published 2012)

Experiments:
CXCR4 receptor = settings: animal and human studies; cited from earlier work
[1] = test system: LCN2 expression in SKBr3 cells; experiment: Western blotting of LCN2 levels in SKBr3 cells incubated with pathway inhibitors; type: cell-based, human
Experimental: FIG. 3 depicts experiments showing that LCN2 (NGAL) is a down-stream target of the HER2/PI-3K/AKT/NF-κB pathway. A. Western blotting of LCN2 levels in HER2^+SKBr3 cells treated with Herceptin. B. Western blotting of LCN2 levels in SKBr3 cells incubated with PI-3K inhibitor LY 294002. C. Western blotting of LCN2 levels in SKBr3 cells incubated with the NF-KB inhibitor Bay11-7082. D. Western blotting of LCN2 levels in SKBr3 cells transiently expressing active or dominant negative AKT.
In addition, overexpression of dominant negative AKT led to reduced expression of LCN2, while overexpression of dominant active AKT increased LCN2 levels ([…]). […] Iannetti A, et al. “The neutrophil gelatinase-associated lipocalin (NGAL), a NF-kappaB-regulated gene, is a survival factor for thyroid neoplastic cells” Proc Natl Acad Sci USA 105(37) (2008) 14058.

4T1 mammospheres = experiment: Transwell migration assay of 4T1 mammospheres; type: cell-based, murine; settings: recombinant SDF-1 in serum-free medium in lower chamber
Experimental: FIG. 5 show the mediators for interaction between stem cells and cancer cells. (A) 4T1 cells and especially spheroid-forming 4T1 cells migrate toward the conditioned medium of mASC. 4T1 cells (3×10^4) were plated in the upper chamber of a 3 μm transwell system. The lower chamber was filled with 1 ml of 72 h conditioned medium of mASC. After 24 h of migration through the transwell membrane, cells were fixed and stained with calcein. The results are the mean and SD number of migrated cells per microscopic field under fluorescent microscope. (B) Data showing that mASC but not 4T1 cells produce SDF-1; 4T1 cells especially spheroid-forming 4T1 cells show higher messenger RNA levels of the specific receptor CXCR4. Secreted amounts of SDF-1a were measured by enzyme-linked immunosorbent assay and CXCR4 messenger RNA levels were determined by quantitative reverse transcription-polymerase chain reaction (RT-PCR). Reverse transcription-polymerase chain reaction results were normalized against GAPDH. (C) 4T1 cells and mammospheres migrate toward recombinant SDF-1 in a transwell system. Recombinant murine SDF-1 in serum-free medium was filled into the lower chamber in stated concentrations. CXCR4 inhibition was performed by 30 μg/ml neutralizing antibody 1 h before and during the migration assay. […]

Compound: c1cc(CN2CCCNCCNCCCNCC2)ccc1CN1CCCNCCNCCCNCC1 [AMD3100]
- hematopoietic stem cell mobilization (CXCR4 receptor): able to induce hematopoietic stem cell mobilization

Compound: Cc1ccc(S(=O)(=O)/C=C/C#N)cc1 [Bay11-7082]
- LCN2 expression [1]: reduced in a dose-dependent manner

Compound: recombinant SDF-1: recombinant murine SDF-1 (CXCL12), ligand of CXCR4
- migration of 4T1 spheroid-forming cells (4T1 mammospheres): triggers migration
